Test results: ChEMBL document CHEMBL3886859, “Pyridine derivatives” (2016)

Tests used:
[1] = molecular target: Cathepsin S (Homo sapiens, UniProt P25774); assay: (§1) Enzyme Inhibition Assay: Enzyme activity is measured by observing the increase in fluorescence intensity caused by cleavage of a peptide substrate containing a fluorophore whose emission is quenched in the intact peptide.Assay buffer: 100 mM potassium phosphate pH 6.5, EDTA-Na 5 mM, Triton X-100 0.001%, DTT 5 mM.Enzymes (all at 1 nM): human and mouse Cathepsin S, Cat K, Cat B, Cat L.Substrate (20 μM): Z-Val-Val-Arg-AMC, except for Cat K which uses Z-Leu-Arg-AMC (both from Bachem).Z=Benzyloxycarbonyl.AMC=7-Amino-4-Methyl-Coumarin.DTT=dithiothreitol.Final volume: 100 μL.Excitation 360 nm, Emission 465 nm.Enzyme is added to the substance dilutions in 96-well microtitre plates and the reaction is started with substrate. Fluorescence emission is measured over 20 minutes, during which time a linear increase is observed in the absence of inhibitor.
Sequence of Cathepsin S (P25774 whole entry): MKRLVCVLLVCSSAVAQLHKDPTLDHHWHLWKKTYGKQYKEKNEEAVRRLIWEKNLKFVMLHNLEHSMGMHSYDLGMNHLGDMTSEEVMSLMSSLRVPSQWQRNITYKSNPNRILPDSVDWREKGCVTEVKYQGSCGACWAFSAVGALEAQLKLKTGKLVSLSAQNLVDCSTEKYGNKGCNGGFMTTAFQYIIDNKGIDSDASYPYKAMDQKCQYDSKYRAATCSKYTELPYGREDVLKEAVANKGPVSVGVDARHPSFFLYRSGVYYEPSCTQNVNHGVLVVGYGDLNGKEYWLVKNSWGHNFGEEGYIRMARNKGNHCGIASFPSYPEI

[2] = molecular target: Procathepsin L (Homo sapiens, UniProt P07711); assay: as §1
Sequence of Procathepsin L (P07711 whole entry): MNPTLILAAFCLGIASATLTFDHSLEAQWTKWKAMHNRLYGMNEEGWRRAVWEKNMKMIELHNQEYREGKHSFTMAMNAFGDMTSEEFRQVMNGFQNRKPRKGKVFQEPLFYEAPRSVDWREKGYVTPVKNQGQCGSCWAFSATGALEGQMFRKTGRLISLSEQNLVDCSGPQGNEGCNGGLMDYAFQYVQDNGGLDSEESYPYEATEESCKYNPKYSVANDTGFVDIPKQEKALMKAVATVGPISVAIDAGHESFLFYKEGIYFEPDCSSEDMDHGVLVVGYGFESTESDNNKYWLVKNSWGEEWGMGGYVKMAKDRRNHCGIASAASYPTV

In the case of `N#CC1(NC(=O)[C@@H]2C[C@@H](Sc3ncc(C(F)(F)F)cc3Cl)CN2C(=O)C2(c3ncc(Cl)cc3F)CC2)CC1`, the IC50 [1] is reported as 1.03 µM and the IC50 [2] is reported as > 25 µM.
Molecule `N#CC1(NC(=O)[C@@H]2C[C@@H](S(=O)(=O)c3ccc(Br)cc3Cl)CN2C(=O)C2(c3ncc(Cl)cc3F)CC2)CC1` has an IC50 [1] of 0.000474 µM and an IC50 [2] of 0.0726 µM.
For `N#CC1(NC(=O)[C@@H]2C[C@@H](S(=O)(=O)c3cc(C(F)(F)F)ccc3Cl)CN2C(=O)C2(c3ncc(Cl)cc3F)CC2)CC1`, the IC50 [1] was 0.000543 µM and the IC50 [2] was 0.0568 µM.
